Results as given in paper PMC10380488, “Cx43 Hemichannel and Panx1 Channel Modulation by Gap19 and ^10Panx1 Peptides” (International Journal of Molecular Sciences, 2023).
Where “and” joins values, the source holds several entries; their conditions need not be identical. Identical values can stand only once. Entries after “also recorded” stand apart in the source; their conditions may differ.

Tests used:
Cx43 HCs [1] = conditions: cited from earlier work
From the text: However, this concentration decreases the NPo of Cx43 HCs by ~83% (Figure 2B; for traces, see Figure 3).

Panx1 channels [2] = target: T1, Panx1 channels (Rattus norvegicus, UniProt P60570); conditions: 200 µM extracellular; high extracellular K^+; cited from earlier work
T1 construct: expressed in transfected cells; host or cells: C6 glioma cells (C6-Panx1), gift of Dr Christian C; Naus
From the text: (§1) Connexins and pannexins are two ubiquitous but distinct protein families forming membrane hemichannels (HCs) and channels in the plasma membrane, respectively. They facilitate the exchange of ions and small molecules (MW ≤ 1.5 kDa) between the intracellular and the extracellular compartment upon opening. Among these respective families, connexin-43 (Cx43) and pannexin-1 (Panx1) are the most abundant isotypes in the human body expressed in a wide array of tissues. Panx1 and Cx43 have several common properties, including the following: (i) an analogous tetra-spanning transmembrane topology with ...

Cx43 or Panx1 channels = conditions: 100 μM extracellular; HeLa cells expressing Cx43 or Panx1; cited from earlier work
From the text: as §1

Cx43 HCs [3] = experiment: Whole-cell patch-clamp, unitary Cx43 hemichannel current activity in HeLa-Cx43 cells; assay type: cell-based; conditions: for nominal open probability (NPo) of Cx43 HCs: HeLa-Cx43, step −30 to +70 mV, 30 s, mean ± SEM, control 0.48 ± 0.02; for conductance γ of Cx43 HC, subconductance state, transition histogram / unitary conductance γ of Cx43 HC, fully open state, transition histogram: Figure 3B, mean ± SD
From the text: (§2) We used HeLa cells stably transfected with Cx43 (HeLa-Cx43 [56]); endogenous expression of Panx1 is very low or absent in non-transfected HeLa cells. C6 glioma cells stably transfected with Panx1 (C6-Panx1, C-terminally myc-tagged; kind gift of Dr Christian C. Naus, University of British Columbia, Canada) were used for the Panx1 channel studies; Cx43 expression is low or undetectable [61] in these cells. HeLa cells were maintained in Dulbecco’s modified Eagle’s medium (DMEM; Invitrogen, Gent, Belgium), and C6 cells were grown in DMEM:Ham’s F12 (1:1—Invitrogen, Merelbeke, Belgium), all supplemented with 10% fetal bovine serum (FBS), 2 mM glutamine, 10 U/mL penicillin, 10 µg/mL streptomycin and 0.25 µg/mL fungizone. Stable exogenous expressions were maintained by supplementation of 1 and 3 µg/mL puromycin (Sigma-Aldrich, Bornem, Belgium) for HeLa-Cx43 and C6-Panx1 cells, respectively. Stable transfectants were subcultured into puromycin-free medium 2 days prior to experimentation. Cells were maintained at 37 °C and 10% (HeLa-Cx43) or 5% (C6-Panx1) CO2.
(§3) All experimental data were obtained with the patch-clamp technique in whole-cell recording mode on HeLa-Cx43 and C6-Panx1 cells. Extracellular solution was composed of the following (in mM): 150 NaCl, 4 CsCl, 2 CaCl2, 2 MgCl2, 2 pyruvic acid, 5 glucose and 5 HEPES at pH of 7.4, while the pipette solution consisted of the following (in mM): 125 CsCl, 10 sodium aspartate (NaAsp), 0.26 CaCl2, 1 MgCl2, 2 EGTA, 10 tetraethylammonium (TEA)-Cl and 5 HEPES at pH 7.2. The free Ca^2+ concentration of the pipette solution was estimated to be ~50 nM as calculated with WEBMAX (https://somapp.ucdmc.ucdavis.edu/pharmacology/bers/maxchelator/webmaxc/webmaxcS.htm; accessed on 20 September 2020). Whole-cell recording was performed under control conditions and in the presence of Gap19 or ^10Panx1. Gap19 was included in the pipette solution, while ^10Panx1 was added externally and preincubated for 45 min. Recordings were commenced 2 min after establishment of the whole-cell configuration. Currents were recorded with an EPC 7 PLUS patch-clamp amplifier (HEKA Elektronik, Germany). Unitary current activities were elicited by stepping the cells from a holding potential of −30 mV to a membrane potential (Vm) of +70 mV for 30 s. Data were digitized at 4 KHz using an NI USB-6221 data acquisition device (National Instruments, Austin, TX, USA) and WinWCP acquisition software designed by Dr. J. Dempster (University of Strathclyde, United Kingdom). Measured currents were filtered by a 7-pole Bessel low-pass filter at 1 KHz cut-off frequency. Transition analysis was performed as reported in [16]. Unitary channel conductances were determined from transition histograms as well as from all-point histograms and were obtained by fitting their frequencies to Gaussian distributions. Channel opening activity is expressed as nominal open probability NPo, denoting the number of active channels in the patch multiplied by the open probability.
(§4) Data were processed using Clampfit version 11.2 (Molecular Devices, San Jose, USA) and HemiGUI software as previously described. Results are expressed as mean ± SEM (unless otherwise stated), with n giving the number of traces, N the number of cells, and N the number of experiments on different cell culture dishes. Multiple groups were compared by one-way analysis of variance with post-hoc Dunnett’s or Bonferroni multiple comparison tests, making use of GraphPad PRISM 5.0 (GraphPad Software, Inc., La Jolla, CA). Results were considered statistically significant when p ≤ 0.05 (*; # for p ≤ 0.05, **; ## for p ≤ 0.01, ***; ### for p ≤ 0.001, and ****; #### for p ≤ 0.0001).

Cx43 C-terminal tail = conditions: cited from earlier work
Panx1 channels [4] = target: T1, Panx1 channels; experiment: Whole-cell patch-clamp, unitary Panx1 channel current activity in C6-Panx1 cells; assay type: cell-based; conditions: for nominal open probability (NPo) of Panx1 channels: C6-Panx1, step −30 to +70 mV, 30 s, mean ± SEM, control 0.37 ± 0.02
From the text: as §2, §3, §4

[5] = 100 μM Gap19 intracellular, N = 12, n = 98
[6] = 200 μM Gap19 intracellular, N = 15, n = 122

T1 sequence (P60570 whole entry): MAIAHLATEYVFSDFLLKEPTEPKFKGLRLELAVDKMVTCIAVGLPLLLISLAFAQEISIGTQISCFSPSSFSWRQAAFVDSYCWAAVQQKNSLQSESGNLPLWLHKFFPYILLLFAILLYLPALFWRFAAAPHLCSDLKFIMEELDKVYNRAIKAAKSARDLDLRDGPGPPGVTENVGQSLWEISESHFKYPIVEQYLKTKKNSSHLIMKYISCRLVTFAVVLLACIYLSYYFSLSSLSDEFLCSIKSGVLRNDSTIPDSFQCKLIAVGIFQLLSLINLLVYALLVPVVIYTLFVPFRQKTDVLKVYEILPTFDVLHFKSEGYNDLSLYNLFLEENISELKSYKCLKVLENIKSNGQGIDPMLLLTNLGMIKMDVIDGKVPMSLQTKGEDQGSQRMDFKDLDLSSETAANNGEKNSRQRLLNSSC

KQIEIKKFK [Gap19]
effect on Cx43 HC gating (Cx43 HCs [1]): gating modifier
effect on ATP release from Panx1-overexpressing cells (Panx1 channels [2]): does not affect ATP release
selectivity for Cx43 or Panx1 channels (Cx43 or Panx1 channels): good selectivity
reduction of NPo of Cx43 HCs (Cx43 HCs [3]; 100 μM Gap19 intracellular): significantly reduces the NPo of Cx43 HCs; also recorded: more than halved the NPo
nominal open probability (NPo) of Cx43 HCs (Cx43 HCs [3]; 100 μM Gap19 intracellular (pipette), N = 12 cells, n = 98 traces): 0.21 ± 0.02
nominal open probability (NPo) of Cx43 HCs (Cx43 HCs [3]; 200 μM Gap19 intracellular (pipette), N = 15 cells, n = 122 traces): 0.18 ± 0.02
nominal open probability (NPo) of Cx43 HCs (Cx43 HCs [3]; 500 μM Gap19 intracellular (pipette), N = 12 cells, n = 88 traces): 0.08 ± 0.01
reduction of NPo of Cx43 HCs (Cx43 HCs [3]; 500 μM Gap19 intracellular, vs control): 84%
conductance γ of Cx43 HC, subconductance state, transition histogram (Cx43 HCs [3]; [5]): 86 ± 31 pS
unitary conductance γ of Cx43 HC, fully open state, transition histogram (Cx43 HCs [3]; [5]): 201 ± 50 pS
conductance γ of Cx43 HC, subconductance state, transition histogram (Cx43 HCs [3]; [6]): 87 ± 27 pS
unitary conductance γ of Cx43 HC, fully open state, transition histogram (Cx43 HCs [3]; [6]): 201 ± 45 pS
conductance γ of Cx43 HC, all-point histogram (Cx43 HCs [3]; Figure 3C, 100 μM Gap19 intracellular): 204 ± 46 pS
inhibition of Cx43 HC opening activity (in words) (Cx43 HCs [3]; Gap19 intracellular / ^10Panx1 extracellular, 100-500 μM (Gap19 100–200 μM)): Inhibited; also recorded: concentration-dependent and significant inhibition; also recorded: concentration-dependently inhibits Cx43 HCs; also recorded: significantly inhibits Cx43 HCs
effect on Cx43 HC gating (fully open state vs subconductance state) (Cx43 HCs [3]; Gap19 intracellular / ^10Panx1 extracellular, from 100 µM): reduced the frequency of transitions to the fully open state and increased the propensity of subconductance transitions starting from 100 µM; also recorded: increased gating to the subconductance state; also recorded: acts as a gating modifier, reducing transitions to the fully open state (~210 pS) while increasing the number of transitions to the subconductance state (~80 pS
interaction with the Cx43 C-terminal tail (Cx43 C-terminal tail): interacts with the Cx43 C-terminal tail
effect on Panx1 channels (Panx1 channels [4]; 100 μM Gap19 intracellular): without affecting the Panx1 channels
nominal open probability (NPo) of Panx1 channels (Panx1 channels [4]; 100 μM Gap19 intracellular (pipette), N = 12 cells, n = 76 traces): 0.34 ± 0.03
nominal open probability (NPo) of Panx1 channels (Panx1 channels [4]; 200 μM Gap19 intracellular (pipette), N = 9 cells, n = 70 traces): 0.30 ± 0.03
effect on open-state events of Panx1, all-point histograms (Panx1 channels [4]; 200 µM Gap19 intracellular, Figure 1C): some effect; also recorded: to some extent
nominal open probability (NPo) of Panx1 channels (Panx1 channels [4]; 500 μM Gap19 intracellular (pipette), N = 10 cells, n = 87 traces): 0.28 ± 0.03
reduction of NPo of Panx1 channels (Panx1 channels [4]; 500 μM Gap19 intracellular, vs control, significant): ~ 25% and 26%
effect on Panx1 channel activity (NPo) (Panx1 channels [4]; 100 and 200 μM Gap19 intracellular (below 500 μM)): did not significantly affect the NPo of the Panx1 channel; also recorded: non-significant effects on Panx1 channel activity; also recorded: without affecting Panx1 channel function; also recorded: No Effect below 500 µM
fast-flickering closures of Panx1 channel (Panx1 channels [4]; traces of Panx1 channel activity (Supplementary Figure S2)): not observed
